We go through nine compounds from patent US20260193293A1, “PEPTIDES CAPABLE OF INHIBITING PROTEIN-PROTEIN INTERACTIONS AT GABAB1A SUBUNIT AND USES THEREOF” (UNIVERSITY OF COPENHAGEN, priority 2022, published 2026).

Non-standard residues stand in square brackets, D forms with d. Residues, ends and D or L forms follow the SMILES beside them. NMeD = CN[C@@H](CC(=O)O)C(=O)O; NMeS = CN[C@@H](CO)C(=O)O

One assay concerns the target Sushi domains (SD1/2) protein. As to the kind of experiment: Fluorescence polarization (FP) competition assay with AJAP-1probe, calculated Ki. In kind it is binding. Conditions: Table 4, truncation and elongation scans of APP epitope; read-out: Ki (nM) mean ± SEM. In short, it runs like this:
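Competition against 25 nM TAMRA-labelled peptide probe binding SD1/2, in PBS pH 7.4 with 1% BSA at rt, read at 530/580 nm. IC50 from sigmoidal dose-response fits, at least triplicate; Ki calculated from IC50 using probe Kd from saturation binding.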
In the case of `CC(=O)N[C@@H](CCC(=O)O)C(=O)N[C@@H](CCC(=O)O)C(=O)N[C@@H](CC(=O)O)C(=O)N[C@@H](CC(=O)O)C(=O)N[C@@H](CO)C(=O)N[C@@H](CC(=O)O)C(=O)N[C@H](C(=O)N[C@@H](Cc1c[nH]c2ccccc12)C(N)=O)C(C)C` (Ac-EEDDSDVW-NH2), the Ki is above 62500 nM.

Turning to `CC(=O)N[C@@H](CCC(=O)O)C(=O)N[C@@H](CCC(=O)O)C(=O)N[C@@H](CC(=O)O)C(=O)N[C@@H](CC(=O)O)C(=O)N[C@@H](CO)C(=O)N[C@@H](CC(=O)O)C(=O)N[C@H](C(=O)N[C@@H](Cc1c[nH]c2ccccc12)C(=O)N[C@@H](Cc1c[nH]c2ccccc12)C(N)=O)C(C)C` (Ac-EEDDSDVWW-NH2), the Ki was 1786 ± 16 nM. Turning to `CC(=O)N[C@@H](CCC(=O)O)C(=O)N[C@@H](CCC(=O)O)C(=O)N[C@@H](CC(=O)O)C(=O)N[C@@H](CC(=O)O)C(=O)N[C@@H](CO)C(=O)N[C@@H](CC(=O)O)C(=O)N[C@H](C(=O)N[C@@H](Cc1c[nH]c2ccccc12)C(=O)N[C@@H](Cc1c[nH]c2ccccc12)C(=O)NCC(N)=O)C(C)C` (Ac-EEDDSDVWWG-NH2), the Ki is 12800 ± 415 nM. Take `CC(=O)N[C@@H](CCC(=O)O)C(=O)N[C@@H](CCC(=O)O)C(=O)N[C@@H](CC(=O)O)C(=O)N[C@@H](CC(=O)O)C(=O)N[C@@H](CO)C(=O)N[C@@H](CC(=O)O)C(=O)N[C@H](C(=O)N[C@@H](Cc1c[nH]c2ccccc12)C(=O)N[C@@H](Cc1c[nH]c2ccccc12)C(=O)NCC(=O)NCC(N)=O)C(C)C` (Ac-EEDDSDVWWGG-NH2): the Ki is 1754 ± 7 nM. Still for that read-out and setting: then `CC(=O)N[C@@H](CCC(=O)O)C(=O)N[C@@H](CCC(=O)O)C(=O)N[C@@H](CC(=O)O)C(=O)N[C@@H](CC(=O)O)C(=O)N[C@@H](CO)C(=O)N[C@@H](CC(=O)O)C(=O)N[C@H](C(=O)N[C@@H](Cc1c[nH]c2ccccc12)C(=O)N[C@@H](Cc1c[nH]c2ccccc12)C(=O)NCC(=O)NCC(=O)N[C@@H](C)C(N)=O)C(C)C` (Ac-EEDDSDVWWGGA-NH2), with 1020 ± 18 nM.

The assay is the same for the next values; noted with them: Table 7, Ala-, D-amino acids and N-methylation scans of APPWT; read-out: Ki (nM) mean ± SEM.
For `CC(=O)N[C@@H](CCC(=O)O)C(=O)N[C@@H](CC(=O)O)C(=O)N[C@@H](CC(=O)O)C(=O)N[C@@H](CO)C(=O)N(C)[C@@H](CC(=O)O)C(=O)N[C@H](C(=O)N[C@@H](Cc1c[nH]c2ccccc12)C(=O)N[C@@H](Cc1c[nH]c2ccccc12)C(=O)NCC(=O)NCC(=O)N[C@@H](C)C(=O)N[C@@H](CC(=O)O)C(=O)N[C@H](C(=O)N[C@@H](CC(=O)O)C(N)=O)[C@@H](C)O)C(C)C` (Ac-EDDS[NMeD]VWWGGADTD-NH2), the Ki is 3760 ± 64 nM. On to `CC(=O)N[C@@H](CCC(=O)O)C(=O)N[C@@H](CC(=O)O)C(=O)N[C@@H](CC(=O)O)C(=O)N(C)[C@@H](CO)C(=O)N[C@@H](CC(=O)O)C(=O)N[C@H](C(=O)N[C@@H](Cc1c[nH]c2ccccc12)C(=O)N[C@@H](Cc1c[nH]c2ccccc12)C(=O)NCC(=O)NCC(=O)N[C@@H](C)C(=O)N[C@@H](CC(=O)O)C(=O)N[C@H](C(=O)N[C@@H](CC(=O)O)C(N)=O)[C@@H](C)O)C(C)C` (Ac-EDD[NMeS]DVWWGGADTD-NH2), for which the Ki was 1670 ± 32 nM.

Consider `CC(=O)N[C@@H](CCC(=O)O)C(=O)N[C@@H](CC(=O)O)C(=O)N(C)[C@@H](CC(=O)O)C(=O)N[C@@H](CO)C(=O)N[C@@H](CC(=O)O)C(=O)N[C@H](C(=O)N[C@@H](Cc1c[nH]c2ccccc12)C(=O)N[C@@H](Cc1c[nH]c2ccccc12)C(=O)NCC(=O)NCC(=O)N[C@@H](C)C(=O)N[C@@H](CC(=O)O)C(=O)N[C@H](C(=O)N[C@@H](CC(=O)O)C(N)=O)[C@@H](C)O)C(C)C` (Ac-ED[NMeD]SDVWWGGADTD-NH2), for which the Ki is 671 ± 27 nM.

Still in this assay, the particulars now being: Table 10, deep mutational scanning validation variants of APPWT; read-out: Ki (nM) mean ± SEM.
For `CC(=O)N[C@@H](CCC(=O)O)C(=O)N[C@@H](CC(=O)O)C(=O)N[C@@H](CC(=O)O)C(=O)N[C@@H](Cc1c[nH]c2ccccc12)C(=O)N[C@@H](CC(=O)O)C(=O)N[C@H](C(=O)N[C@@H](Cc1c[nH]c2ccccc12)C(=O)N[C@@H](Cc1c[nH]c2ccccc12)C(=O)NCC(=O)NCC(=O)N[C@@H](C)C(=O)N[C@@H](CC(=O)O)C(=O)N[C@H](C(=O)N[C@@H](CC(=O)O)C(N)=O)[C@@H](C)O)C(C)C` (Ac-EDDWDVWWGGADTD-NH2), the Ki is 257 ± 4 nM.
